From patent US20040043939A1, “Peptide-based gemini compounds” (SmithKline Beecham p.l.c., priority 1997, published 2004)
Numbered stars: 1 amine (or outer) side, 2 acyl side, 3 side chain; on linkers, the order of the positions; unused ones are H or OH. Bridge positions count the residues as written; N and C are the ends. Peptide text beside a SMILES is read from it. I, II: the chains in the order shown. * marks the point of attachment. NH(CH2)11CH3 = CCCCCCCCCCCCN*; CH2CH2 = C(C[*:2])[*:1]

What was measured:
Type in all cases: cell-based
HEK293 cells = assay: Transfection of luciferase plasmid into HEK293 cells, luciferase activity assay; settings: for Efficiency in facilitating transfection of the luciferase plasmid: at concentrations above 150 ug/ml; for Luciferase activity, mean count at most effective (peak) concentration: luciferase control plasmid 6 ug, mean of 4 independent counts; for Concentration of peak transfection efficiency (most effective concentration): luciferase plasmid
Description: All tissue culture reagents were obtained from Life Technologies Inc. HEK 293 cells were seeded at 2-3×10^5 cells per well in Nunc six-well culture plates, 24 hours prior to transfection. The cells were seeded in 2 mls Dulbeccos Modified Eagle medium containing Earles salts and supplemented with 10% v/v foetal bovine serum (=complete medium). The cells were grown at 37° C. in 5% CO2 in a humidified atmosphere. 6 ug DNA (“luciferase control plasmid” from Promega Corp.) were dissolved in 100 ul serum free medium (OPTI-MEMO). The peptide-based gemini compounds were made up at 1 mg/ml in tissue culture grade water and then diluted in OPTI-MEM® to the appropriate concentration to a final volume of 100 ul. The DNA and gemini solutions were mixed (to a total volume of 200 ul; final concentrations of 5, 25, 50, 100, 150, 200, 250 and 300 ug/ml) and left at room temperature for 15 minutes. The DNA/gemini mix was placed onto the cells in each well and left in contact for 18-20 hours. The cells were then washed twice with phophate buffered saline prior to 1 ml of fresh complete medium being added. Cells were incubated for a further 24 hours prior to lysis and luciferase activity assayed.
All luciferase activity assays were performed using the Canberra Packard (Berkshire, UK) Luclite kit according to the manufacturer's instructions with the exception that the cells in each well were resuspended in 1 ml lysis buffer and 100 ul aliquots mixed with 100 ul of the luciferase substrate. The reaction mix was left for a 15 minutes adaptation period in the dark before counting for 5 minutes in a Top Count scintillation counter. Luciferase activity is measured as counts per second (CPS) from the scintillation counter. Four independent counts were taken per well.
Control transfections were set up with no DNA, CaPO4, an anionic gemini compound (1) and the commercially available lipofection reagents LipofectAmine™ and Lipotaxi™ at the manufacturers recommended concentrations (10, 25, 50, 75, 125 ug/ml and 175, 250, 325, 400 and 500 ug/ml respectively).

CHO-K1 cells [1] = assay: Transfection of luciferase plasmid into CHO-K1 cells, luciferase reporter gene assay; settings: for Luciferase activity, mean count at most effective (peak) concentration: 5 ug luciferase plasmid, about 48 h post transfection; for Concentration of peak transfection efficiency (most effective concentration): luciferase plasmid
Description: CHO-K1 cells (ATCC: CRL-9618) were seeded into T25-culture flasks (Corning-Costar Buckinghamshire, UK), at 7×10^5 cells per flask, 24 hours prior to transfection. The CHO-K1 cells were seeded in 5 ml MEM alpha medium with ribonucleosides and deoxyribonucleosides and supplemented with 1× L-glutamine and 10% v/v foetal bovine serum (complete medium). The cells were grown at 37° C. in 5% CO2 in a humidified atmosphere.
For transfection, 5 ug DNA (luciferase control plasmid) was incubated with the gemini compounds in water (final volume 400 μl). The peptide-based gemini compounds were made up at 1 mg ml^−1 in tissue culture grade water and then diluted to the appropriate concentration to a total volume of 200 ul. Following a 30 minute room temperature incubation, 2.6 ml OPTI-MEM® medium was added and the solution placed on the cells. Following an overnight incubation at 37° C., the transfection solution was replaced with complete medium and the cells incubated at 37° C. 24 hours post transfection the cells were detached from the flask and seeded into 96-well plates at a density of 0.5×10^5 cells per well and incubated for a further 24 hours at 37° C. Luciferase reporter gene assays were performed according to the manufacturers instructions (Roche Diagnostics, Mannheim, Germany) approximately 48 hours post transfection. The plates were left for a 15 minutes adaption period in the dark before counting for 60 seconds in a TopCount NXT counter (Canberra Packard). An average of eight wells were counted per transfection.
Control transfections were set up with no DNA, an anionic gemini compound and the commercially available reagent LipofectAmine PLUS™.

CHO-K1 cells [2] = assay: Transfection of luciferase plasmid into CHO-K1 cells with gemini compounds in combination with supplements (DOPE, PLUS)
Description: The transfection ability of the gemini compounds could be further enhanced by the addition of a neutral carrier, for example, dioleyl phosphatidylethanolamine (DOPE) (Farhood, H., et al (1985) Biochim. Biophys. Acta 1235 289) or a complexing reagent, for example, PLUS compound (Life Technologies Inc.). […] Transfection mediated by compound 55 with DOPE in a 2:1 ratio and the addition of 11.6 ul of PLUS compound lead to a mean count of 6.5×10^5 cps representing a 12-fold increase of luciferase activity in comparison to compound 55 alone. Incubation of the PLUS compound with the DNA and combination with compound 55 alone also lead to a 4-fold increase.

[3] = compound 55 with DOPE 2:1 plus 11.6 ul PLUS compound

Row | Compound | Efficiency in facilitating transfection of the luciferase plasmid (HEK293 cells) | Luciferase activity, mean count at most effective (peak) concentration (HEK293 cells) | Concentration of peak transfection efficiency (most effective concentration) (HEK293 cells) [µg/mL] | Efficiency in facilitating transfection of the luciferase plasmid (CHO-K1 cells [1]) | Luciferase activity, mean count at most effective (peak) concentration (CHO-K1 cells [1]) | Concentration of peak transfection efficiency (most effective concentration) (CHO-K1 cells [1]) [µM] | Increase of luciferase activity (CHO-K1 cells [2]; PLUS compound incubated with the DNA, combined with compound 55 alone (no DOPE)) [fold] | Increase of luciferase activity (CHO-K1 cells [2]; compound 55 and DOPE at 2:1 ratio) [fold] | Increase of luciferase activity in comparison to compound 55 alone (CHO-K1 cells [2]; [3]) [fold] | Luciferase activity, mean count (CHO-K1 cells [2]; [3]) | Luciferase activity count, control transfection (HEK293 cells; CaPO4 transfection)
1 | CCCCCCCCCCCCNC(=O)C(CO)NC(=O)C(CSCCSCC(NC(=O)C(CCCCNC(=O)C(N)CCCCN)NC(=O)C(N)CCCCN)C(=O)NC(CO)C(=O)NCCCCCCCCCCCC)NC(=O)C(CCCCNC(=O)C(N)CCCCN)NC(=O)C(N)CCCCN.Cl.Cl.Cl.Cl.Cl.Cl.Cl.Cl (centres unmarked) [Compound 56] (I: H-KK(Lys)CS-{NH(CH2)11CH3} / II: H-KK(Lys)CS-{NH(CH2)11CH3}; linker I:3-II:3 via CH2CH2; configuration not given here) | very efficient agents | about 50,000 cps | 200 | very efficient agents | about 1.9×10^5 cps | 40 | – | – | – | – | –
2 | CCCCCCCCCCCCCNC(=O)C(CO)NC(=O)C(CSCCSCC(NC(=O)C(N)CCCCNC(=O)C(N)CCCCN)C(=O)NC(CO)C(=O)NCCCCCCCCCCCC)NC(=O)C(N)CCCCNC(=O)C(N)CCCCN.Cl.Cl.Cl.Cl (centres unmarked) [Compound 55] | very efficient agents | about 45,000 cps | 300 | very efficient agents | about 2.4×10^5 cps | 30 | 4 | 9 | 12 | 6.5×10^5 cps | –
3 | CaPO4 [reference compound] | – | – | – | – | – | – | – | – | – | – | about 2,000 cps
